Reference: patent publication US4870097A, “Pharmaceutical use of derivatives of tryptophan” (priority 1984, dated 1989)

What follows are compounds tested on analgesic activity of morphine (assay: Tail Flick Test: increase in the analgesic effect of morphine). Conditions: 10'; compound 10 mg/kg i.p. + morphine 2 mg/kg (row Morphine: alone); ± S.E.
Format: in vivo, rats
Experimental: Increase in the analgesic effect of analgesic-narcotic drugs in rats in the Tail Flick Test
The method is that described by Harris et al. (J. Pharmacol. Exp. Ther. 143 (1964) 141-148).
Male rats are used which have a weight of about 150-200 g and which have not been fasting. A point is chosen on the tail and this is irradiated by a heat source (75° C.) and the time (in seconds) for which the animal remains without moving its tail is measured.
A maximum period of time under the heat source of 8 seconds is chosen after which the animal is, in any case, removed in order to avoid tissue damage. The measurement is effected before (controls) and after treatment with the drugs.
. The percentage variation is calculated for each individual animal by the following formula: [formula] The measurements are carried out 10, 20, 30, 45, 60 and 90 minutes after treatment with the analgesics.
The results obtained are given in Table 1 which records the groups treated and the doses administered, the
average percentage variations (calculated on groups of five animals) in […]
In the case of O=C(N[C@@H](Cc1c[nH]c2ccccc12)C(=O)O)c1ccc(Br)cc1 [Compound 13], the “percentage variation in the latency of the pain sensation, 10'” value (“percentage variation in the latency … 10'” below) is reported as 26.7 ± 5.6%. With O=C(N[C@@H](Cc1c[nH]c2ccccc12)C(=O)O)c1ccc(F)cc1 [Compound 14] the “percentage variation in the latency … 10'” value was 47.9 ± 21.0%. In the case of O=C(N[C@@H](Cc1c[nH]c2ccccc12)C(=O)O)c1ccc(I)cc1 [Compound 15], the “percentage variation in the latency … 10'” value is reported as 77.7 ± 13.8%. In the case of O=C(N[C@@H](Cc1c[nH]c2ccccc12)C(=O)O)c1cccc(Cl)c1 [Compound 16], the “percentage variation in the latency … 10'” value is reported as 25.2 ± 21.8%.

Same assay, conditions: 20'; compound 10 mg/kg i.p. + morphine 2 mg/kg (row Morphine: alone); ± S.E.
In the case of O=C(N[C@@H](Cc1c[nH]c2ccccc12)C(=O)O)c1ccc(Br)cc1 [Compound 13], the “percentage variation in the latency of the pain sensation, 20'” value (“percentage variation in the latency … 20'” for short) is reported as 72.6 ± 13.0%. With O=C(N[C@@H](Cc1c[nH]c2ccccc12)C(=O)O)c1ccc(F)cc1 [Compound 14] the “percentage variation in the latency … 20'” value was 90.2 ± 9.8%. In the case of O=C(N[C@@H](Cc1c[nH]c2ccccc12)C(=O)O)c1ccc(I)cc1 [Compound 15], the “percentage variation in the latency … 20'” value is reported as 81.7 ± 12.3%. For O=C(N[C@@H](Cc1c[nH]c2ccccc12)C(=O)O)c1cccc(Cl)c1 [Compound 16], the “percentage variation in the latency … 20'” value was 39.5 ± 26.1%.

Same assay, conditions: 30'; compound 10 mg/kg i.p. + morphine 2 mg/kg (row Morphine: alone); ± S.E.
O=C(N[C@@H](Cc1c[nH]c2ccccc12)C(=O)O)c1ccc(Br)cc1 [Compound 13] was tested, and the “percentage variation in the latency of the pain sensation, 30'” value (from here on “percentage variation in the latency … 30'”) was 77.2 ± 10.0%. In the case of O=C(N[C@@H](Cc1c[nH]c2ccccc12)C(=O)O)c1ccc(F)cc1 [Compound 14], the “percentage variation in the latency … 30'” value is reported as 80.0 ± 12.5%. With O=C(N[C@@H](Cc1c[nH]c2ccccc12)C(=O)O)c1ccc(I)cc1 [Compound 15] the “percentage variation in the latency … 30'” value was 91.0 ± 9.0%. O=C(N[C@@H](Cc1c[nH]c2ccccc12)C(=O)O)c1cccc(Cl)c1 [Compound 16] was tested, and the “percentage variation in the latency … 30'” value was 37.7 ± 22.9%.

Same assay, conditions: 45'; compound 10 mg/kg i.p. + morphine 2 mg/kg (row Morphine: alone); ± S.E.
For O=C(N[C@@H](Cc1c[nH]c2ccccc12)C(=O)O)c1ccc(Br)cc1 [Compound 13], the “percentage variation in the latency of the pain sensation, 45'” value (from here on “percentage variation in the latency … 45'”) was 86.2 ± 8.9%. With O=C(N[C@@H](Cc1c[nH]c2ccccc12)C(=O)O)c1ccc(F)cc1 [Compound 14] the “percentage variation in the latency … 45'” value was 67.7 ± 19.8%. With O=C(N[C@@H](Cc1c[nH]c2ccccc12)C(=O)O)c1ccc(I)cc1 [Compound 15] the “percentage variation in the latency … 45'” value was 89.0 ± 11.0%. O=C(N[C@@H](Cc1c[nH]c2ccccc12)C(=O)O)c1cccc(Cl)c1 [Compound 16] was tested, and the “percentage variation in the latency … 45'” value was 33.1 ± 19.9%.

Same assay, conditions: 60'; compound 10 mg/kg i.p. + morphine 2 mg/kg (row Morphine: alone); ± S.E.
With O=C(N[C@@H](Cc1c[nH]c2ccccc12)C(=O)O)c1ccc(Br)cc1 [Compound 13] the “percentage variation in the latency of the pain sensation, 60'” value (from here on “percentage variation in the latency … 60'”) was 38.8 ± 11.3%. With O=C(N[C@@H](Cc1c[nH]c2ccccc12)C(=O)O)c1ccc(F)cc1 [Compound 14] the “percentage variation in the latency … 60'” value was 70.5 ± 18.1%. For O=C(N[C@@H](Cc1c[nH]c2ccccc12)C(=O)O)c1ccc(I)cc1 [Compound 15], the “percentage variation in the latency … 60'” value was 70.4 ± 17.2%. O=C(N[C@@H](Cc1c[nH]c2ccccc12)C(=O)O)c1cccc(Cl)c1 [Compound 16] was tested, and the “percentage variation in the latency … 60'” value was 25.9 ± 18.1%.

Same assay, conditions: 90'; compound 10 mg/kg i.p. + morphine 2 mg/kg (row Morphine: alone); ± S.E.
For O=C(N[C@@H](Cc1c[nH]c2ccccc12)C(=O)O)c1ccc(Br)cc1 [Compound 13], the “percentage variation in the latency of the pain sensation, 90'” value (from here on “percentage variation in the latency … 90'”) was 12.6 ± 9.8%. In the case of O=C(N[C@@H](Cc1c[nH]c2ccccc12)C(=O)O)c1ccc(F)cc1 [Compound 14], the “percentage variation in the latency … 90'” value is reported as 61.5 ± 11.8%. O=C(N[C@@H](Cc1c[nH]c2ccccc12)C(=O)O)c1ccc(I)cc1 [Compound 15] was tested, and the “percentage variation in the latency … 90'” value was 60.3 ± 12.6%. For O=C(N[C@@H](Cc1c[nH]c2ccccc12)C(=O)O)c1cccc(Cl)c1 [Compound 16], the “percentage variation in the latency … 90'” value was 9.7 ± 11.9%.

Same assay, conditions: mean 10'-90'; compound 10 mg/kg i.p. + morphine 2 mg/kg (row Morphine: alone)
In the case of O=C(N[C@@H](Cc1c[nH]c2ccccc12)C(=O)O)c1ccc(Br)cc1 [Compound 13], the “M(10'-90') average percentage variation” value is reported as 52.3%. With O=C(N[C@@H](Cc1c[nH]c2ccccc12)C(=O)O)c1ccc(F)cc1 [Compound 14] the “M(10'-90') average percentage variation” value was 69.6%. In the case of O=C(N[C@@H](Cc1c[nH]c2ccccc12)C(=O)O)c1ccc(I)cc1 [Compound 15], the “M(10'-90') average percentage variation” value is reported as 78.3%. In the case of O=C(N[C@@H](Cc1c[nH]c2ccccc12)C(=O)O)c1cccc(Cl)c1 [Compound 16], the “M(10'-90') average percentage variation” value is reported as 28.5%.

Same assay, conditions: rat, in vivo
For O=C(N[C@@H](Cc1c[nH]c2ccccc12)C(=O)O)c1ccc(Br)cc1 [Compound 13], the “Potency ratio relative to morphine alone” value was 1.75. With O=C(N[C@@H](Cc1c[nH]c2ccccc12)C(=O)O)c1ccc(F)cc1 [Compound 14] the “Potency ratio relative to morphine alone” value was 2.33. For O=C(N[C@@H](Cc1c[nH]c2ccccc12)C(=O)O)c1ccc(I)cc1 [Compound 15], the “Potency ratio relative to morphine alone” value was 2.63. In the case of O=C(N[C@@H](Cc1c[nH]c2ccccc12)C(=O)O)c1cccc(Cl)c1 [Compound 16], the “Potency ratio relative to morphine alone” value is reported as 0.96.

These compounds were tested on guinea pig gall bladder contracted with CCK-8 (assay: Anti-CCK activity on guinea pig gall bladders in vitro). Conditions: CCK-8 10 ng/ml, concentration antagonising 50% of contracting effect.
Format: biochemical
Experimental: A longitudinal strip of guinea pig gall bladder is placed in a bath of Krebs for isolated organs at a temperature of 32° C. and oxygenated continuously with an oxygen-CO2 mixture (95-5 V/V).
The […] contractions are detected by means of a force transducer and recorded.
The gall bladder is contracted with the use of a CCK-8 solution at a concentration of 10 ng/ml; the antagonistic activity of the compounds of the invention towards the contracting effect of the CCK is determined with the use of different concentrations, the ED50 value, that is the concentration of the compound in mcg/ml capable of antagonising 50% of the contracting effect of the CCK, being determined.
The results obtained are set out in the following table which gives the compounds tested and the ED50 values which are calculated by the method of regression on a test of at least three experiments for each compound studied.
For O=C(N[C@@H](Cc1c[nH]c2ccccc12)C(=O)O)c1ccc(Br)cc1 [Compound 13], the “Anti CCK-8 activity, ED50” value was 158.0 µg/mL. With O=C(N[C@@H](Cc1c[nH]c2ccccc12)C(=O)O)c1ccc(F)cc1 [Compound 14] the “Anti CCK-8 activity, ED50” value was 233.2 µg/mL. For O=C(N[C@@H](Cc1c[nH]c2ccccc12)C(=O)O)c1ccc(I)cc1 [Compound 15], the “Anti CCK-8 activity, ED50” value was “IN (inactive up to 400 mcg/ml)”. O=C(N[C@@H](Cc1c[nH]c2ccccc12)C(=O)O)c1cccc(Cl)c1 [Compound 16] was tested, and the “Anti CCK-8 activity, ED50” value was 197.5 µg/mL.
